Experimental findings from patent US20240116985A1, “STAPLED PEPTIDES AND METHODS THEREOF” (priority 2020, published 2024) are described below.

≈ marks a conversion by molar mass, not a printed value. Where “and” joins values, the source holds several entries; their conditions need not be identical. Equal entries are not always repeated. Where two headings read alike, the source gives them in different places.

Data set [1] addresses T1, full-length beta-Catenin (Uniprot ID P35222) (Homo sapiens, UniProt P35222).
T1 construct: 10 nM full-length beta-Catenin (Uniprot ID P35222)
T1 sequence (P35222 1-781): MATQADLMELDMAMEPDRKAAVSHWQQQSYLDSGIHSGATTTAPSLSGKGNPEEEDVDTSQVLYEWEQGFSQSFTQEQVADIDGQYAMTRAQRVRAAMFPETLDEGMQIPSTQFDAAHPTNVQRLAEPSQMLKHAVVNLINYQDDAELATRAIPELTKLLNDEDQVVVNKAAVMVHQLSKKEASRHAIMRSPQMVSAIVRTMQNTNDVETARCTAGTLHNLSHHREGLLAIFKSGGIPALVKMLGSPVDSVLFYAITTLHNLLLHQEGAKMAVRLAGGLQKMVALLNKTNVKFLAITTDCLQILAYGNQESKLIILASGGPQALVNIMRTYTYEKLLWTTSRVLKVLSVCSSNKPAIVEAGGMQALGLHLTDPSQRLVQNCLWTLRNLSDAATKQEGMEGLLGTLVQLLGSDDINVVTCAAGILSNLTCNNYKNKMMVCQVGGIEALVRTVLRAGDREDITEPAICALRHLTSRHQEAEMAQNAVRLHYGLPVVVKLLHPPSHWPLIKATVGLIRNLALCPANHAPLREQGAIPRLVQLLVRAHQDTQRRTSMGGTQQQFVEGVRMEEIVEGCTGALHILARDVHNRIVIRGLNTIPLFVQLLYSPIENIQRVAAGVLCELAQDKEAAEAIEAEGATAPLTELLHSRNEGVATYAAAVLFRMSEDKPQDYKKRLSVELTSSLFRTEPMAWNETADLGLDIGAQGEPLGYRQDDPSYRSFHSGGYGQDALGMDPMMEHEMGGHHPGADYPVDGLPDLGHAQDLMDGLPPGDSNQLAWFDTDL
The data set is described as follows: Fluorescence polarization IC50 (beta-catenin / 5FAM-TCF4 10-53 competition). The data set is classed as binding.

The next data set is described as follows: CHI Log D procedure. Conditions: for CHI Log D: pH 7.4; for chromatographic logD: pH 7.4, CHI Log D. The data set is classed as physicochemical.
A short description of another data set: Solubility in PBS. The data set is classed as physicochemical. The procedure, abridged: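 Read-out is the HPLC peak area of the supernatant from ultracentrifuged PBS solution, scaled against a 50 μM peptide DMSO injection; value reported as [(PBS area)/(DMSO area)]*50 uM.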
For data set [2], the target named is T2, beta-catenin/TCF4 engagement (Homo sapiens, UniProt P35222).
T2 construct: expressed in transfected cells; host or cells: HEK293
T2 sequence (P35222 1-781): T1 sequence (P35222 1-781)
Description: Nano-BRET target engagement assay (B-cat-Halo & TCF4-Luc in HEK293 cells). Conditions: for IC50: read-out: NanoBRET Abs IC50. The data set is classed as cell-based.

In data set [3] the test system is TCF/LEF luciferase Reporter in DLD1 cells. The data set is described as follows: TCF reporter assay (DLD1 TCF/LEF luciferase reporter, Bright-Glo). Format: cell-based. As to conditions: for DLD1 TCF c2 BrightGlo % Inhibition: replicates. The procedure, abridged:
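Readouts: Bright-Glo luciferase for reporter signal and CellTiter-Glo for cell viability, with absolute IC50 derived. The reporter clone came from lentiviral TCF/LEF-luciferase transduction of DLD1 cells, seeded 5000 cells/well in RPMI with 4% FBS and exposed overnight to serially diluted compounds.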

The mark [4] stands for this setting: fluorescence polarization, beta-catenin, read-out: FP EC50.
The mark [5] stands for this setting: absolute IC50, read-out: DLD1 reporter assay Abs IC50.
[6] abbreviates: first dose = 20 uM (plate map), 20 µM.
[7] abbreviates: read-out: DLD1 4% Abs IC50, DLD1 4%.
Where [8] appears, read: third dose = 5 uM (plate map), 5 µM.
The mark [9] stands for this setting: Peptide + ST-Protein (SAINT-Protein lipid).

For orientation: Solubility means how much of the substance goes into solution per volume. Higher therefore signals a readily soluble substance. Consider `CC(=O)N1CCC[C@]12CC=CCCCC1(CCCC=CCCCCCC[C@@](C)(C(=O)N[C@@H](Cc3ccccc3Cl)C(=O)N[C@@H](Cc3csc4ccccc34)C(=O)N[C@@H](CCO)C(N)=O)NC(=O)[C@H](CO)NC(=O)[C@H](Cc3ccccc3)NC(=O)[C@H](C)NC(=O)[C@H](C)NC(=O)[C@H](CN(CC(=O)O)CC(F)(F)F)NC(=O)[C@H](CC(=O)O)NC1=O)NC(=O)[C@H](CC(C)(C)C)NC(=O)[C@H](CC(=O)O)NC2=O` (single isomer, unassigned) [I-999, Ac-PL3-Asp-Npg-B5-Asp-TfeGA-Ala-Ala-Phe-Ser-S8-2C1F-BztA-Hse-NH2], for which the IC50 in data set [1] (setting [4]) was determined as 0.026 µM; in data set [1] (read-out: beta-Catenin FP IC50), 0.026 µM; in data set [2] (absolute IC50) it was 26.3 µM; in data set [2], 26.3 µM; in data set [3] (setting [5]), 11.1 µM; in data set [3] (setting [7]) it was 5.6 µM. Moreover, the “CHI Log D” value in the data set “CHI Log D procedure” is given as 2.941. Further, the “Solubility” value in “Solubility in PBS” worked out at 30 µM (≈ 58.8 µg/mL). Moreover, the “DLD1 TCF c2 BrightGlo % Inhibition” value in data set [3] (setting [6]) was 63.2% and 71.4% and 68.9%; in data set [3] (0.625 µM), 7.7% and 8.8% and 6.4%; in data set [3] (1.25 µM) it was 1.7% and 8.0% and 4.0%; in data set [3] (2.5 µM), 14.3% and 11.9% and 4.4%; in data set [3] (10 µM) it was 42.0% and 49.2% and 49.7%; in data set [3] (setting [8]), 18.2% and 32.5% and 23.9%.
On to `CC(=O)N1CCC[C@]12CC=CCCCC1(CCCC=CCCCOC(=O)N3CC[C@@](C(=O)N[C@@H](Cc4ccccc4C(F)(F)F)C(=O)N[C@@H](Cc4csc5ccccc45)C(=O)N[C@@H](CCC(N)=O)C(N)=O)(C3)NC(=O)[C@H](CC(N)=O)NC(=O)[C@H](Cc3ccccc3)NC(=O)[C@H](C)NC(=O)[C@H](C)NC(=O)[C@H](CN(CC(=O)O)CC(F)(F)F)NC(=O)[C@H](CC(=O)O)NC1=O)NC(=O)[C@H](CC(C)(C)C)NC(=O)[C@H](CC(=O)O)NC2=O` (stereo partly drawn) [I-927, Ac-PL3-Asp-Npg-B5-Asp-TfeGA-Ala-Ala-Phe-Asn-PyrS2-2F3MeF-BztA-Gln-NH2], for which the IC50 in data set [1] (setting [4]) turned out to be 0.011 µM; in data set [1] (read-out: beta-Catenin FP IC50), 0.011 µM; in data set [2] (absolute IC50), 8.2 µM; in data set [2], 8.2 µM; in data set [3] (setting [5]), 4.2 µM. Moreover, the “CHI Log D” value in “CHI Log D procedure” is 2.313. Besides, the “DLD1 TCF c2 BrightGlo % Inhibition” value in data set [3] (setting [6]) is 77.1% and 77.4% and 80.3%; in data set [3] (0.625 µM), 3.5% and 8.0% and 14.3%; in data set [3] (1.25 µM) it was 8.7% and 15.1% and 18.6%; in data set [3] (2.5 µM), 23.9% and 33.7% and 42.0%; in data set [3] (10 µM), 68.0% and 70.2% and 72.9%; in data set [3] (setting [8]), 53.1% and 55.2% and 60.1%.
For `CCN(CC(=O)O)C[C@@H]1NC(=O)[C@H](CC(=O)O)NC(=O)C2(CCCC=CCCCOC(=O)N3CC[C@@](C(=O)N[C@@H](Cc4ccsc4)C(=O)N[C@@H](Cc4csc5ccccc45)C(=O)N[C@@H](CCC(N)=O)C(N)=O)(C3)NC(=O)[C@H](CC(C)C)NC(=O)[C@H](Cc3ccccc3)NC(=O)[C@H](C)NC(=O)[C@H](C)NC1=O)CCCC=CC[C@]1(CCCN1C(C)=O)C(=O)N[C@@H](CC(=O)O)C(=O)N[C@@H](CC(C)(C)C)C(=O)N2` (stereo partly drawn) [I-973, Ac-PL3-Asp-Npg-B5-Asp-EtGA-Ala-Ala-Phe-Leu-PyrS2-3Thi-BztA-Gln-NH2], the IC50 stood at 1.38 µM in data set [1] (setting [4]), 0.009 µM in data set [1] (read-out: beta-Catenin FP IC50) and 10.1 µM in data set [3] (setting [7]). For the same molecule, the “CHI Log D” value in “CHI Log D procedure” was determined as 1.95. Besides, the “Solubility” value in the data set “Solubility in PBS” was 10 µM (≈ 19.7 µg/mL).
As a reminder, the chromatographic logD is lipophilicity estimated from chromatographic retention. A higher chromatographic logD goes with a more lipophilic compound. For the molecule `CC(=O)N1CCC[C@]12CC=CCCCC1(CCCC=CCCCOC(=O)N3CC[C@@](C(=O)N[C@@H](CC(=O)O)C(=O)N[C@@H](Cc4csc5ccccc45)C(=O)N[C@@H](CCC(N)=O)C(N)=O)(C3)NC(=O)[C@H](CC(N)=O)NC(=O)[C@H](Cc3ccccc3)NC(=O)[C@H](C)NC(=O)[C@H](C)NC(=O)[C@H](CN(CC(=O)O)CC(F)(F)F)NC(=O)[C@H](Cc3ccsc3)NC1=O)NC(=O)[C@H](CC(C)(C)C)NC(=O)[C@H](CC(=O)O)NC2=O` (stereo partly drawn) [I-1001, Ac-PL3-Asp-Npg-B5-3Thi-TfeGA-Ala-Ala-Phe-Asn-PyrS2-Asp-BztA-Gln-NH2], the IC50 is 5.53 µM in data set [1] (setting [4]), 7.22 µM in data set [1] (read-out: beta-Catenin FP IC50), greater than 20 µM in data set [2] (absolute IC50) and greater than 20 µM in data set [3] (setting [5]). This molecule also came in with a chromatographic logD in “CHI Log D procedure” of 1.89. Moreover, the “Nano-BRET Abs IC50 (uM)” value in data set [2] (setting [9]) and in data set [2] (Peptide only) was “inactive” in each case. Besides, the “TCF Reporter Assay Abs IC50 (uM)” value in data set [3] (setting [9]) and in data set [3] (Peptide only) was “inactive” each time. The “DLD1 TCF c2 BrightGlo % Inhibition” value in data set [3] (setting [6]) is −1.2% and 7.5% and 3.5%; in data set [3] (0.625 µM), −1.5% and 9.3% and 4.5%; in data set [3] (1.25 µM) it was −7.0% and −2.8% and 6.1%; in data set [3] (2.5 µM), −8.0% and −7.6% and −5.0%; in data set [3] (10 µM) it was −3.6% and −4.8% and −7.4%; in data set [3] (setting [8]) it was −6.7% (2×) and −0.7%.
Take `CC(=O)N1CCC[C@]12CC=CCCCC1(CCCC=CCCCOC(=O)N3CC[C@@](C(=O)N[C@@H](Cc4ccccc4Cl)C(=O)N[C@@H](Cc4csc5ccccc45)C(=O)N[C@@H](CCC(N)=O)C(N)=O)(C3)NC(=O)[C@H](CC(N)=O)NC(=O)[C@H](Cc3ccccc3)NC(=O)[C@H](CC(C)C)NC(=O)[C@H](C)NC(=O)[C@H](CN(CC(=O)O)CC(F)(F)F)NC(=O)[C@H](CC(=O)O)NC1=O)NC(=O)[C@H](CC(C)(C)C)NC(=O)[C@H](CC(=O)O)NC2=O` (stereo partly drawn) [I-1002, Ac-PL3-Asp-Npg-B5-Asp-TfeGA-Ala-Leu-Phe-Asn-PyrS2-2C1F-BztA-Gln-NH2]: the IC50 in data set [1] (read-out: beta-Catenin FP IC50) is 0.009 µM; in data set [2] (absolute IC50), 29.8 µM; in data set [3] (setting [5]) it was greater than 20 µM. The molecule further yielded a chromatographic logD in the data set “CHI Log D procedure” of 2.6.
Regarding `CC(=O)N1CCC[C@]12CC=CCCCC1(CCCC=CCCCCCC[C@@](C)(C(=O)N[C@@H](Cc3ccccc3Cl)C(=O)N[C@@H](Cc3csc4ccccc34)C(=O)N[C@@H](CCC(N)=O)C(N)=O)NC(=O)[C@H](CC(C)C)NC(=O)[C@H](Cc3ccccc3)NC(=O)[C@H](C)NC(=O)[C@H](C)NC(=O)[C@H](CC(=O)O)NC(=O)[C@H](CC(=O)O)NC1=O)NC(=O)[C@H](CC(C)(C)C)NC(=O)[C@H](CC(=O)O)NC2=O` (stereo partly drawn) [I-1095, Ac-PL3-Asp-Npg-B5-Asp-Asp-Ala-Ala-Phe-Leu-S8-2C1F-BztA-Gln-NH2], the IC50 was 0.015 µM in data set [1] (read-out: beta-Catenin FP IC50), greater than 20 µM in data set [2] (absolute IC50) and greater than 20 µM in data set [3] (setting [5]). The same molecule gave a chromatographic logD in the data set “CHI Log D procedure” of 3.09.
`CC(=O)N1CCC[C@]12CC=CCCCC1(CCCC=CCCCOC(=O)N3CC[C@@](C(=O)N[C@@H](Cc4ccccc4C(F)(F)F)C(=O)N[C@@H](Cc4csc5ccccc45)C(=O)N[C@@H](CCC(N)=O)C(N)=O)(C3)NC(=O)[C@H](Cc3ccccc3)NC(=O)[C@H](Cc3ccccc3)NC(=O)[C@H](C)NC(=O)[C@H](C)NC(=O)[C@H](CC(=O)O)NC(=O)[C@H](CC(=O)O)NC1=O)NC(=O)[C@H](CC(C)(C)C)NC(=O)[C@H](CC(=O)O)NC2=O` (stereo partly drawn) [I-1319, Ac-PL3-Asp-Npg-B5-Asp-Asp-Ala-Ala-Phe-Phe-PyrS2-2F3MeF-BztA-Gln-NH2]: the IC50 is 0.01 µM in data set [1] (fluorescence polarization, read-out: beta-Catenin FP IC50); 4.2 µM in data set [2] (absolute IC50); 2.1 µM in data set [3] (read-out: DLD1 4% Abs IC50, DLD1 reporter, 4%, absolute IC50). For the same molecule, the “Solubility” value in “Solubility in PBS” is 10 µM (≈ 20.1 µg/mL).
